Source: US20240285624A1, “ERK1/2 OR SHP2 INHIBITORS AND FLT3 INHIBITORS COMBINATION THERAPY” (Erasca, Inc., priority 2021, published 2024)

How the values were obtained:
[1] = test system: ERK1/2 phosphorylation in MOLM-14 cells; test: Western blot of phosphorylated ERK1/2; assay type: cell-based; conditions: compound 2 alone, 4 hours, relative to DMSO treated control cells
Method: (§1) Western blotting: Cells were lysed on ice for 10 minutes with Thermo Fisher RIPA lysis buffer with protease and phosphatase inhibitors. The cells were centrifuged at 4° for 10 minutes with a microcentrifuge. The supernatant was transferred to pre-chilled microcentrifuge tube and protein concentration of the lysate was measured using BCA method. Cell lysate supematants of equal-amount of proteins were used for immunoblotting.
(§2) FIG. 3A is a Western blot showing compound 2 and gilteritinib combination induced downregulation of ERK1/2 phosphorylation in MOLM-14 cells. FIG. 3B is a bar plot quantifying the results of […]. The cell lines, MOLM14 and MV-4-11 were split onto a 6 well plate and treated with compound 2 and gilteritinib alone, and in combination as indicated (FIGS. 3A/B and 4A/B). After 4 hours treatment, cells were lysed and immunoblotted for phosphorylated ERK1/2. […] The phosphorylated ERK1/2 bands were quantified by using Bio-Rad Image Lab software and normalized by total ERK.

[2] = test system: ERK1/2 phosphorylation in MV-4-11 cells; test: Western blot of phosphorylated ERK1/2; assay type: cell-based; conditions: compound 2 alone, 4 hours, relative to DMSO treated control cells
Method: as §1, §2
FIG. 4A is a Western blot showing compound 2 and gilteritinib combination induced downregulation of ERK1/2 phosphorylation in MV-4-11 cells. FIG. 4B is a bar plot quantifying the results of […]. […] The phosphorylated ERK1/2 bands were quantified by using Bio-Rad Image Lab software and normalized by total ERK.

[3] = test system: MOLM-13 subcutaneous CDX model; test: In vivo tumor growth, FLT3-ITD mutated AML subcutaneous CDX model MOLM-13; set-up: species or system Balb/c nude mice; conditions: compound 2 15 or 30 mg/kg PO QD; groups terminated on treatment day 12
Method: The vehicle/control article, 100 mM acetic acid in deionized water, with pH adjustment to 4.8-5.0, was prepared and stored under ambient conditions throughout the 42-day administration in mice.
The test article, compound 2, was freshly prepared in vehicle of 100 mM acetic buffer weekly and stored under ambient conditions. The combination agent gilteritinib was prepared weekly in vehicle of 0.5% Methyl Cellulose & 0.1% Tween 80 Solution weekly and stored under ambient conditions.
Female Balb/c nude mice were between 6-8 weeks of age at the time of implantation. Mice were hosted in a special pathogen-free (SPF) environment of the vivarium facility and acclimated to their new environment for at least 3 days prior to initiation of any experiments according to IACUC protocol.
MOLM-13 was AML cell line that harbored a FLT3-ITD mutation. MOLM-13 cells were cultured in medium containing RPMI1640 plus 10% Fetal Bovine Serum (FBS) and 1% Antibiotic-Antimycotic (AA), at 37° C. in an atmosphere of 5% CO2 in air. The medium was renewed every 2 to 3 days and tumor cells were routinely sub-cultured at a confluence of 80-90% by trypsin-EDTA. Cells growing in an exponential growth phase were harvested and counted for inoculation. […] Animal health and tumor growth were monitored daily. Tumor volume was measured twice a week by caliper when tumors were palpable and measurable. […]

For COCOC[C@H]1C[C@H]2COc3c(Sc4cnc(N5CCC6(CC5)CO[C@@H](C)[C@H]6N)c(CO)n4)ccnc3N2C1 [compound 2, (3-((3S,4S)-4-amino-3-methyl-2-oxa-8-azaspiro[4.5]decan-8-yl)-6-(((6aS,8S)-8-((methoxymethoxy)methyl)-6a,7,8,9-tetrahydro-6H-pyrido[3,2-b]pyrrolo[1,2-d][1,4]oxazin-4-yl)thio)pyrazin-2-yl)methanol], which “inhibition of ERK1/2 phosphorylation (immunoblot)” value [1] is on record?
The value was “about 30%”.

And the “inhibition of ERK1/2 phosphorylation (immunoblot)” value [2]?
The value was “about 50%”.

And the “tumor growth under monotherapy (group termination)” value [3]?
Its value is “rapid tumor growth”.
